Results as given in patent publication US5589457A, “Process for the synchronization of ovulation” (Ausa International, Inc., priority 1995, dated 1996).
No end group written: not given here.

Key:
cow = conditions: cited from earlier work
lactating dairy cows = assay: Ovulation response to GnRH injection in lactating dairy cows; format: in vivo, bovine
Text: The sequential hormone treatments function in the following manner. The first injection of GnRH (or the LH or hCG if used) will cause ovulation of any large functional follicles that are present on the ovaries. Experimental work has shown that a follicle will ovulate in over 80% of lactating dairy cows that are given this GnRH injection. This ensures that a Corpus Luteum is present on the ovary to inhibit animals from coming into heat during the following week. This injection causes growth of a new wave of follicles due to secretion of follicle stimulating hormone (FSH) from the pituitary gland. Thus, the first injection of GnRH assures the presence of a corpus luteum and synchronizes the growth of a new follicular wave. The follicle that will eventually ovulate will come from this new wave of follicles.
As with other protocols, such as disclosed in the aforementioned patent to Donaldson, the injection of PGF2a is designed to regress any corpora lutea that are present on the ovary. This allows the new dominant follicle to proceed toward ovulation. Usually about 11/2 to 2 days later, just before two animals would begin to show signs of heat, the cows are given a second injection of GnRH. At this time the new dominant follicle should be at a large ovulatory size and this injection will cause the large follicle to ovulate. However, as indicated previously, the second dose of GnRH can be given at the same time as the PGF2a injection and this can be done where it is desirable to enhance management efficiency; that is by combining the PGF2a and GnRH injection, one step in the treatment protocol is eliminated. The cows will ovulate at 1-2 days, usually 24-32 hours after this second injection of GnRH. Thus, instead of having animals show heat over a 7 day period of time, ovulation can be synchronized to an 8 hour period of time. This concise synchronization allows for effective timed insemination.

cows = assay: Artificial insemination concomitant with second GnRH dose (preliminary work); format: in vivo, bovine; conditions: insemination near or at the same time as second GnRH injection
Experimental: While the normal practice will be to inseminate the cows about 16-20 hours after the second GnRH injection, insemination can occur any time ranging from the time of the GnRH injection or a day before or up to about a day later. Ovulation need not occur before insemination since the sperm can survive in the reproductive track for up to one or even two days after insemination. Thus insemination can safely take place one day before the GnRH injection. Preliminary work has shown that in some cases there may be some advantages to carrying out the artificial insemination concomitantly with the administration of the second dose of GnRH or within eight hours either before or after the second dose of GnRH.

[1] = second GnRH injection after PGF2a

Compound | time to heat after PGF2a, large dominant follicle present (cow; PGF2a given when a large dominant follicle is present) [days] | time for follicle to grow large enough to induce heat after PGF2a, new follicular wave just beginning (cow; PGF2a given when a new follicular wave is just beginning) [days] | period of time to which ovulation is synchronized (lactating dairy cows; after second GnRH injection) [h] | lactating dairy cows in which a follicle will ovulate after the first GnRH injection (lactating dairy cows; first injection of GnRH, any stage of estrous cycle) | time of ovulation after second injection of GnRH (lactating dairy cows; [1]) [days] | usual time of ovulation after second injection of GnRH (lactating dairy cows; [1]) [h] | birth rate of female calves (cows) | spontaneous abortion rate (cows)
CCCCC[C@H](O)/C=C/[C@@H]1[C@@H](C/C=C\CCCC(=O)O)[C@@H](O)C[C@H]1O [PGF2a, prostaglandin F2α] | 2 to 3 | 6 to 7 |  |  |  |  |  | 
gonadotropin releasing hormone (QHWSYGLRPG; ends and bridges not checked; UniProt P01148 24-33, looked up) [GnRH] |  |  | 8 | over 80% | 1 to 2 | 24 to 32 | enhancement in the birth rate of female calves | somewhat lower spontaneous abortion rate
